Data reported in patent publication US20110086875A1, “Powdered Medicament for Nasal Delivery of Ascorbic Acid for Reducing Apomorphine Induced Toxicity to Ciliated Tissue” (BRITANNIA PHARMACEUTICALS LIMITED, priority 2007, published 2011).

Tested on: ciliated tissue taken from the trachea of a chick embryo
Assay: Cilia beat frequency (CBF) model
Format: cell-based
Source text: By “toxic” herein is meant that the active agent has an adverse effect on the cilia beat frequency of ciliated tissue taken from the trachea of a chick embryo according to the model that is well known in the art (“The Effect of Nasal Drug Formulations on Ciliary Beating in Vitro,” Romeijn, et al.; Int. J. Pharm., 135; 1996: 137-145; “Classification of Cilio-Inhibiting Effects of Nasal Drugs,” Merkus, et al., Laryngoscope, 111(4); April 2001: 595-602). By “ameliorating said toxicity” herein is meant that the adverse effect of the active agent on the cilia beat frequency is lessened as a result of the inclusion in the medicament of ascorbic acid for co-administration with said active agent. […]
The cilia beat frequency (CBF) model is a recognised technique to investigate the relative toxicity of substances applied in solution to a section of ciliated tissue taken from the trachea of a chick embryo (Romeijn, et al., 1996, Merkus, et al., 2001). […] The tissue is then transferred to a well containing 1.0 ml of test solution and the impact on CBF assessed. Further, the reversibility of any effects can be measured by washing the tissue in Locke-Ringer solution 15 minute post administration and evaluating the recovery of CBF.

Row | Structure (SMILES) | reversibility of toxic effect on CBF after washing | effect of adding ascorbic acid on the apomorphine-induced arrest of cilia beat movement (1% wt. ascorbic acid added to 1% apomorphine in MLR solution, single administration, FIG. 1)
1 | CN1CCc2cccc3c2[C@H]1Cc1ccc(O)c(O)c1-3 [apomorphine] | irreversible | 
2 | O=C1O[C@H]([C@@H](O)CO)C(O)=C1O [ascorbic acid] |  | ameliorated significantly
